The source of these data is patent US11279691B2, “Substituted pyridine and pyrazine compounds as PDE4 inhibitors” (Dart Neuroscience LLC, priority 2013, dated 2022).

A value given as a limit tells only on which side of the number the result lay.

T1 sequence (Q08499 1-673 isoform Q08499-2): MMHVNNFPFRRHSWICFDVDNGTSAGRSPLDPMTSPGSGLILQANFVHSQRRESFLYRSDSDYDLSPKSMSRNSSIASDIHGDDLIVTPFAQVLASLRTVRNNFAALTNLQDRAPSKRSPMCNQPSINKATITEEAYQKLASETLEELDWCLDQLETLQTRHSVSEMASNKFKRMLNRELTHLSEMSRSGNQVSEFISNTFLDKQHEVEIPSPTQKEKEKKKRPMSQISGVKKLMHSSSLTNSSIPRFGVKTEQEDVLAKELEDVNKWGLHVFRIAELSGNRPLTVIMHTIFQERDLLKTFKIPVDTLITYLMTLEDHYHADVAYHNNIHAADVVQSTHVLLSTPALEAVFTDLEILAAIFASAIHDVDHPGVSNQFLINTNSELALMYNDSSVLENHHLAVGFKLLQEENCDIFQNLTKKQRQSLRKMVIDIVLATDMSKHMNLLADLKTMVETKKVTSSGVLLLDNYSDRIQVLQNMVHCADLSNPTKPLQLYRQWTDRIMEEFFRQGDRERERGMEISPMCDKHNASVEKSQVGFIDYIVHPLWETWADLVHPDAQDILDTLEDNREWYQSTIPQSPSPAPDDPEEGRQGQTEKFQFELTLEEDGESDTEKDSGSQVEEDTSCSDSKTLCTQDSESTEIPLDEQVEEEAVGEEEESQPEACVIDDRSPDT

This assay has as its target T1, PDE4D3 (Homo sapiens, UniProt Q08499).
T1 construct: GST
The format is biochemical. The conditions noted are these: GST-tagged PDE4D3, 200 nM FAM-cAMP, 11-point dose-response; read-out: PD4d3 pEC50 (converted).
For the compound `CCOc1ncc(Cn2cnc(CO)n2)cc1-c1cccc(C(F)(F)F)c1` [Example 332, [1-({6-Ethoxy-5-[3-(trifluoromethyl)phenyl]pyridin-3-yl}methyl)-1H-1,2,4-triazol-3-yl]methanol], the EC50 is 1 to 10 µM. Consider `CCOc1ncc(Cn2cnc(CO)n2)cc1-c1ccccc1F` [Example 277, (1-((6-Ethoxy-5-(2-fluorophenyl)pyridin-3-yl)methyl)-1H-1,2,4-triazol-3-yl)methanol], for which the EC50 was above 10 µM.

For `N#CCc1ncn(Cc2cnc(OC(F)F)c(-c3cccc(Cl)c3)c2)n1` [Example 285, 2-(1-{[5-(3-chlorophenyl)-6-(difluoromethoxy)pyridin-3-yl]methyl}-1H-1,2,4-triazol-3-yl)acetonitrile], the EC50 is 0.1 to 1 µM. Regarding `CCOc1ncc(Cc2cnc(CO)c(F)c2)cc1-c1ccnc(OC(F)F)c1` [Example 405, [5-({5-[2-(Difluoromethoxy)pyridin-4-yl]-6-ethoxypyridin-3-yl}methyl)-3-fluoropyridin-2-yl]methanol], the EC50 was below 0.1 µM. As to `CCOc1cc(-c2cc(Cc3cnc(CO)c(F)c3)cnc2OCC(F)F)ccn1` [Example 404, (5-{[6-(2,2-Difluoroethoxy)-5-(2-ethoxypyridin-4-yl)pyridin-3-yl]methyl}-3-fluoropyridin-2-yl)methanol], the EC50 was below 0.1 µM. In the case of `COc1ncc(Cc2ccc(C#N)cn2)cc1-c1cccc(Cl)c1` [Example 378, 6-{[5-(3-Chlorophenyl)-6-methoxypyridin-3-yl]methyl}pyridine-3-carbonitrile] it was 0.1 to 1 µM; in that of `COc1ncc(Cc2cnc(C(N)=O)nc2)cc1-c1ccc(F)cc1` [Example 374, 5-{[5-(4-Fluorophenyl)-6-methoxypyridin-3-yl]methyl}pyrimidine-2-carboxamide], 0.1 to 1 µM; in that of `CCOc1ncc(Cn2cnc(CO)n2)cc1-c1ccnc(C(F)(F)F)c1` [Example 339, [1-({6-Ethoxy-5-[2-(trifluoromethyl)pyridin-4-yl]pyridin-3-yl}methyl)-1H-1,2,4-triazol-3-yl]methanol], 1 to 10 µM. On to `COc1ncc(Cn2nnc(CO)n2)cc1-c1ccc(F)cc1` [Example 381, (2-{[5-(4-Fluorophenyl)-6-methoxypyridin-3-yl]methyl}-2H-1,2,3,4-tetrazol-5-yl)methanol], for which the EC50 is 0.1 to 1 µM. Regarding `COc1ncc(Cc2cnc(N)nc2)cc1-c1ccc(Cl)c(F)c1` [Example 361, 5-{[5-(4-Chloro-3-fluorophenyl)-6-methoxypyridin-3-yl]methyl}pyrimidin-2-amine], the EC50 was 0.1 to 1 µM. For the compound `COc1ncc(Cc2cnc(CC(N)=O)nc2)cc1-c1ccc(F)c(F)c1` [Example 368, 2-(5-{[5-(3,4-Difluorophenyl)-6-methoxypyridin-3-yl]methyl}pyrimidin-2-yl)acetamide], the EC50 is below 0.1 µM.

Consider `CCOc1cc(-c2cc(Cn3nnnc3C)cnc2OCC)ccn1` [Example 400, 2-Ethoxy-3-(2-ethoxypyridin-4-yl)-5-[(5-methyl-1H-1,2,3,4-tetrazol-1-yl)methyl]pyridine], for which the EC50 is 0.1 to 1 µM. Take `Cc1nc(CO)cn1Cc1cnc(OC(F)F)c(-c2cccc(Cl)c2)c1` [Example 321, (1-{[5-(3-Chlorophenyl)-6-(difluoromethoxy)pyridin-3-yl]methyl}-2-methyl-1H-imidazol-4-yl)methanol]: the EC50 is 0.1 to 1 µM. Consider `CCOc1ncc(Cn2nnnc2C)cc1-c1cc(F)cc(OC)c1` [Example 402, 2-Ethoxy-3-(3-fluoro-5-methoxyphenyl)-5-[(5-methyl-1H-1,2,3,4-tetrazol-1-yl)methyl]pyridine], for which the EC50 was 0.1 to 1 µM.
